Experimental data reported in ChEMBL document CHEMBL1201862, “PubChem BioAssay data set” (2004).
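Method: 48-hour compound exposure of cells in 96-well plates, five concentrations, linear interpolation of endpoints. GI50 marks 50% less growth.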 The source made the active and inactive calls. No stated cut-off is given here; in the data, active = GI50 up to about 1.1 µM and inactive = higher.

Experiments:
Experiment in all cases: NCI-60 cell line screen, 48 h
A549 = system: A549
COLO 205 = system: COLO 205
DU-145 = system: DU-145
HL-60 = system: HL-60
HOP-62 = system: HOP-62
IGROV-1 = system: IGROV-1
K562 = system: K562
MDA-N = system: MDA-N
MOLT-4 = system: MOLT-4
NCI-H23 = system: NCI-H23
OVCAR-3 = system: OVCAR-3
OVCAR-4 = system: OVCAR-4
PC-3 = system: PC-3
RXF 393 = system: RXF 393
SF-268 = system: SF-268
SK-MEL-28 = system: SK-MEL-28
SK-OV-3 = system: SK-OV-3
U-251 = system: U-251
KM12 = system: KM12
UO-31 = system: UO-31

Measured: GI50

Cc1ccc(S(=O)(=O)OC2CCN(C)CC2)cc1
inactive: A549 57.8 µM | COLO 205 21.7 µM | DU-145 > 100 µM | HL-60 18 µM | HOP-62 > 100 µM | IGROV-1 > 100 µM | K562 19.3 µM | MDA-N > 100 µM | MOLT-4 18.3 µM | NCI-H23 33.7 µM | OVCAR-3 > 100 µM | OVCAR-4 > 100 µM | PC-3 > 100 µM | RXF 393 > 100 µM | SF-268 > 100 µM | SK-MEL-28 > 100 µM | SK-OV-3 > 100 µM | U-251 > 100 µM

CC1(C)C2CCC(N)(C2)C1O (stereo unspecified)
inactive: A549 > 100 µM | COLO 205 > 100 µM | DU-145 > 100 µM | HL-60 > 10 µM | HOP-62 > 100 µM | IGROV-1 > 100 µM | K562 > 100 µM | KM12 > 100 µM | MDA-N > 100 µM | MOLT-4 > 100 µM | NCI-H23 > 100 µM | OVCAR-3 > 100 µM | OVCAR-4 > 100 µM | PC-3 > 100 µM | RXF 393 > 100 µM | SK-MEL-28 > 100 µM | SK-OV-3 > 100 µM | U-251 > 100 µM | UO-31 > 100 µM

CC1=NN(c2cccc(Cl)c2)C2(C1=Cc1ccc(O)cc1)C(Cl)C(=O)N2c1nc2ccccc2s1 (stereo unspecified)
inactive: DU-145 21.5 µM | HL-60 26.4 µM | HOP-62 20.9 µM | IGROV-1 14.1 µM | K562 18.6 µM | KM12 22.4 µM | MDA-N 23.3 µM | MOLT-4 14.2 µM | NCI-H23 16 µM | OVCAR-3 26 µM | OVCAR-4 22.6 µM | PC-3 19.4 µM | RXF 393 20.5 µM | SF-268 19.6 µM | SK-MEL-28 29 µM | SK-OV-3 22.8 µM | U-251 20 µM | UO-31 12.9 µM

COc1cc(C(=O)Oc2c(C(C)=O)sc3c2c(=O)n(-c2ccccc2)c(=S)n3-c2ccccc2)cc(OC)c1OC
inactive: A549 28.9 µM | COLO 205 15.7 µM | DU-145 26.4 µM | HL-60 24.7 µM | HOP-62 24.4 µM | IGROV-1 21 µM | K562 33.6 µM | KM12 22.8 µM | MDA-N 22.8 µM | MOLT-4 25 µM | NCI-H23 20.2 µM | OVCAR-3 18.2 µM | OVCAR-4 24.5 µM | PC-3 18.2 µM | RXF 393 18.9 µM | SF-268 24.5 µM | SK-MEL-28 19.2 µM | SK-OV-3 31.6 µM | U-251 20.7 µM

OC1c2[nH]c3ccccc3c2CCN2CCCCC12 (stereo unspecified)
inactive: A549 > 100 µM | COLO 205 > 100 µM | DU-145 > 100 µM | HL-60 > 100 µM | HOP-62 > 100 µM | IGROV-1 > 100 µM | K562 > 100 µM | KM12 > 100 µM | MDA-N > 100 µM | MOLT-4 > 100 µM | NCI-H23 > 100 µM | OVCAR-3 > 100 µM | OVCAR-4 > 100 µM | PC-3 > 100 µM | RXF 393 > 100 µM | SF-268 > 100 µM | SK-MEL-28 > 100 µM | SK-OV-3 > 100 µM | U-251 > 100 µM

O=c1c2ccccc2nc(Nc2cccc(Cl)c2)n1/N=C/C=C/c1ccccc1
inactive: A549 75.3 µM | COLO 205 > 100 µM | DU-145 > 100 µM | HL-60 > 100 µM | HOP-62 85.5 µM | IGROV-1 > 100 µM | K562 > 100 µM | KM12 > 100 µM | MDA-N > 100 µM | MOLT-4 > 100 µM | NCI-H23 71.9 µM | OVCAR-3 73.1 µM | OVCAR-4 45.5 µM | PC-3 33.7 µM | RXF 393 > 100 µM | SF-268 53 µM | SK-MEL-28 > 100 µM | SK-OV-3 70 µM | U-251 28.8 µM | UO-31 > 100 µM

C=C(C(N)=O)c1ccc([N+](=O)[O-])o1
inactive: A549 15.1 µM | COLO 205 3.31 µM | DU-145 11.4 µM | HL-60 3.16 µM | HOP-62 22.8 µM | IGROV-1 10.6 µM | K562 3.61 µM | KM12 16.7 µM | MDA-N 3 µM | MOLT-4 3.84 µM | NCI-H23 5.02 µM | OVCAR-3 8.36 µM | OVCAR-4 11.6 µM | PC-3 30.7 µM | RXF 393 3.08 µM | SF-268 8.36 µM | SK-MEL-28 2.67 µM | SK-OV-3 30.8 µM | U-251 15.6 µM

CCCCCCCCCc1cc(=O)c2c(O)cc(O)cc2o1
inactive: A549 18.5 µM | COLO 205 27.2 µM | DU-145 20.2 µM | HL-60 14.3 µM | HOP-62 14.8 µM | IGROV-1 16.5 µM | K562 10.2 µM | KM12 6.67 µM | MDA-N > 100 µM | MOLT-4 4.91 µM | NCI-H23 18.5 µM | OVCAR-3 15.7 µM | OVCAR-4 24.3 µM | PC-3 18 µM | RXF 393 15.1 µM | SF-268 3.82 µM | SK-MEL-28 19.2 µM | SK-OV-3 17.1 µM | U-251 28.6 µM | UO-31 16.9 µM

COC1CCC(OS(C)(=O)=O)C(C)O1 (stereo unspecified)
inactive: A549 > 10 µM | COLO 205 > 10 µM | DU-145 > 10 µM | HL-60 > 10 µM | HOP-62 > 10 µM | IGROV-1 > 10 µM | K562 > 10 µM | KM12 > 10 µM | MDA-N > 10 µM | MOLT-4 > 10 µM | NCI-H23 > 10 µM | OVCAR-3 > 10 µM | OVCAR-4 > 10 µM | PC-3 > 10 µM | RXF 393 > 10 µM | SF-268 > 10 µM | SK-MEL-28 > 10 µM | SK-OV-3 > 10 µM | U-251 > 10 µM

OCCN(CCO)c1ccc2c(C(F)(F)F)cc(C(F)(F)F)nc2n1
inactive: A549 > 77.3 µM | COLO 205 > 100 µM | DU-145 > 100 µM | HL-60 > 100 µM | HOP-62 > 100 µM | IGROV-1 > 100 µM | K562 > 100 µM | KM12 > 100 µM | MDA-N > 100 µM | MOLT-4 > 100 µM | NCI-H23 > 100 µM | OVCAR-3 > 100 µM | OVCAR-4 > 100 µM | PC-3 > 100 µM | RXF 393 > 100 µM | SF-268 > 100 µM | SK-MEL-28 > 100 µM | SK-OV-3 > 100 µM | U-251 > 100 µM | UO-31 > 100 µM
